From patent US20240174637A1, “DEGRADERS OF GRK2 AND USES THEREOF” (Sonata Therapeutics, Inc., priority 2021, published 2024)

Legend:
[1] = target: T1, GRK2 (Homo sapiens, UniProt P25098); assay: ADPGlo GRK2 Inhibition Assay (Example 2); type: biochemical; conditions: ADP-Glo, 10 μM ATP; read-out: ADP Glo Enzymatic GRK2 Assay: IC50 (nM) (Example 2)
T1 sequence (P25098 1-689): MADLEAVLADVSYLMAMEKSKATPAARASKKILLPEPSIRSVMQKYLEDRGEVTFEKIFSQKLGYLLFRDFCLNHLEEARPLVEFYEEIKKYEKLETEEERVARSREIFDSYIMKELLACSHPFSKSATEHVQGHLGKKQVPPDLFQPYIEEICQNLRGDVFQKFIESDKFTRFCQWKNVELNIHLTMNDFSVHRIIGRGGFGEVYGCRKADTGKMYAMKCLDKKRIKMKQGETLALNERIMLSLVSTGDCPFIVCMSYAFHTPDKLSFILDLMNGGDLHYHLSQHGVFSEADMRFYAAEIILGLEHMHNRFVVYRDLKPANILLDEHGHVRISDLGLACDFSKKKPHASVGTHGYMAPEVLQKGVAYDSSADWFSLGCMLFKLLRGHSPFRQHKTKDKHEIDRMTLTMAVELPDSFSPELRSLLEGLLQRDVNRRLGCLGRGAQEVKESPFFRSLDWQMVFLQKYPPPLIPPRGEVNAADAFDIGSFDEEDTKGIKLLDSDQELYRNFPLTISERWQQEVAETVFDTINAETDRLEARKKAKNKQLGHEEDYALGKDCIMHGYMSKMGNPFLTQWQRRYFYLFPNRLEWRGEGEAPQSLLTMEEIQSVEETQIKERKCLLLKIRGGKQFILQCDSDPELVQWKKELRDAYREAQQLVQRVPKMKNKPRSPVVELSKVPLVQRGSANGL
Protocol: Assay: GRK2 (7.5 nM) was incubated with ATP (10 μM) and GRKtide (0.3 mg/mL) in 5 μL of assay buffer (see above) for 180 min at room temperature. HTS was performed using 1 μM compound. Compounds were dissolved in 100% DMSO, serially diluted tree-fold from 100 μM concentration to 46 nM and transferred (50 nL) into assay ready plate.
Materials: GRK2 was purchased from SignalChem (Cat #A14-10G, Lot #X645-3). Substrate GRKtide was from SignalChem (Cat #G46-58, Lot #R339-6). ADP-Glo Kinase Assay from Promega (Cat #V9102). Assay buffer consisted of 25 mM HEPES (pH7.5), 10 mM MgCl2, 0.01% Tween-20, 1 mM DDT. 384-well white plates were from Greiner […] (Item #784075).
HTS protocol: Take 384 well plate with 50 nL of compound in columns 3-22/DMSO solution 1-2,23-24. Add 2.5 μL assay buffer to columns 23 and 24 using Thermo Scientific Multidrop Combi Dispenser. Add 2.5 μL of 2× enzyme solution (15 nM in 1× assay buffer) using Thermo Scientific Multidrop Combi Reagent Dispenser to all columns except of 23 and 24. Incubate for 15 minutes. Fill plate with 2.5 μL of 2× substrate mix (20 μM ATP and 0.6 mg/mL GRKtide in 1× assay buffer) using Thermo Scientific Multidrop Combi Reagent Dispenser. Spin 15 seconds at 1000 rpm and incubate for 180 min at room temperature. Add 5 μL ADP-Glo reagent to all the wells. Spin 15 seconds at 1000 rpm and incubate for 40 min at room temperature. Add 10 μL Detection solution to all the wells. Incubate for 30 min at room temperature. Read plate in Luminescent mode on BMG PheraStar FSX (gain=3600).
Data Analysis: Data were analyzed in GraphPad Prism 8.0.2. Each HTS plate contains compounds in columns 3-22, controls (enzyme, no compound) in columns 1 and 2, and blanks (no enzyme) in columns 23 and 24. HTS percent inhibition was calculated for each compound from the signal in luminescence units and the mean of the plate controls and the mean of the plate blanks using the following equation: % Inhibition=100*(1−((signal−blank mean)/(control mean−blank mean))). At the final stage of data processing, we obtain dose-response curves, tables and SDF-files with the results of screening for each substance.

[2] = system: PAXF1657 EV; assay: 7-day cellular proliferation assay (CellTiter-Glo), PAXF1657 EV; type: cell-based; conditions: 168 h, 7-day, read-out: 7-day proliferation assay: IC50 GeoMean (uM) [Cell Line: PAXF1657 EV]
Summary of the method: (§1)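 Isogenic PAXF1657 pairs differing in GRK2 level (stable cDNA overexpression or CRISPR knockout, each with matched control) are seeded and allowed to attach overnight. Inhibitors span 30 μM-0.0002 μM in 0.3% DMSO for 3 plus 4 days at 37° C, 5% CO2, with a medium change between.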

[3] = system: PAXF1657 KO Clone #4; assay: 7-day cellular proliferation assay (CellTiter-Glo), PAXF1657 KO Clone #4; type: cell-based; conditions: 168 h, 7-day, read-out: 7-day proliferation assay: IC50 GeoMean (uM) [Cell Line: PAXF1657 KO Clone #4]
Summary of the method: as §1

| IC50 [1] | SMILES | IC50 [2] | IC50 [3] |
| --- | --- | --- | --- |
| < 100 nM | Cc1ncsc1-c1ccc(CNC(=O)[C@@H]2C[C@@H](O)CN2C(=O)[C@@H](NC(=O)COCCOCCCCCCOc2cccc(CNC(=O)c3cccc(NCc4nnc(-c5ccncn5)n4C)c3)c2)C(C)(C)C)cc1 [Compound D101] | < 1 µM | 1 to 10 µM |
| < 100 nM | Cc1ncsc1-c1ccc(CNC(=O)[C@@H]2C[C@@H](O)CN2C(=O)[C@@H](NC(=O)COCCOCCOCCOCCOCCOCCCCCCOc2cccc(CNC(=O)c3cccc(NCc4nnc(-c5ccncn5)n4C)c3)c2)C(C)(C)C)cc1 [Compound D100] | > 10 µM | > 10 µM |
